Organism: Rattus norvegicus
Experiment: Open TG-GATES - Regimen: Single
Assay type: toxicity, organism-based, Sprague-Dawley
Design: regimen Single, gender Male, age 6 weeks
Conditions: in vivo, po, 400 mg/kg, route gavage, dose level Low; for APTT / Bas / Eos / Fbg / Hb / Ht / Lym / MCH / MCHC / MCV / Mono / Neu / PT / Plat / RBC / Ret / WBC: tissue Blood; for KIDNEY_L / KIDNEY_R / KIDNEY_TOTAL: tissue Kidney; for LIVER: tissue Liver; for A/G / ALP / ALT / AST / BUN / CRE / Ca / Cl / DBIL / GLC / IP / K / LDH / Na / PL / RALB / TBIL / TC / TG / TP / gamma-GTP: tissue Plasma

`CCO` [ALCOHOL] gave a TERMINAL_BW (3 h) of 202.6 g, an APTT (3 h) of 16.4 s and a Bas (3 h) of 0%. For the same compound, the Eos (3 h) was 1%, the Fbg (3 h) was 202.8 mg/dL and the Hb (3 h) was 13.7 g/dL. It also gave a Ht (3 h) of 40.7%, a Lym (3 h) of 81.2% and an MCH (3 h) of 21.8 pg. It also gave an MCHC (3 h) of 33.6%, an MCV (3 h) of 64.7 fL and a Mono (3 h) of 5.6%. The Neu (3 h) was 12.2%, the PT (3 h) was 12 s and the Plat (3 h) was 115.5 x10_4/uL. For the same compound, the RBC (3 h) was 628.6 x10_4/ul, the Ret (3 h) was 10% and the WBC (3 h) was 77.8 x10_2/uL. For the same compound, the KIDNEY_L (3 h) was 0.9 g, the KIDNEY_R (3 h) was 0.9 g and the KIDNEY_TOTAL (3 h) was 1.8 g. For the same compound, the LIVER (3 h) was 9.6 g, the A/G (3 h) was 2.5 and the ALP (3 h) was 1037.2 IU/L. It also gave an ALT (3 h) of 36.2 IU/L, an AST (3 h) of 69 IU/L and a BUN (3 h) of 13.8 mg/dL. For the same compound, the CRE (3 h) was 0.5 mg/dL, the Ca (3 h) was 10.7 mg/dL and the Cl (3 h) was 104.4 meq/L. The DBIL (3 h) was 0.012 mg/dL, the GLC (3 h) was 195.8 mg/dL and the IP (3 h) was 9.3 mg/dL. It also gave a K (3 h) of 4.4 meq/L, an LDH (3 h) of 117.6 IU/L and a Na (3 h) of 139.8 meq/L. It also gave a PL (3 h) of 140.4 mg/dL, an RALB (3 h) of 3.9 g/dL and a TBIL (3 h) of 0.4 mg/dL. For the same compound, the TC (3 h) was 76.4 mg/dL, the TG (3 h) was 66 mg/dL and the TP (3 h) was 5.4 g/dL. It also gave a gamma-GTP (3 h) of 1.2 IU/L, a TERMINAL_BW (6 h) of 202.6 g and an APTT (6 h) of 17.9 s. For the same compound, the Bas (6 h) was 0%, the Eos (6 h) was 1% and the Fbg (6 h) was 220.2 mg/dL. The Hb (6 h) was 13.8 g/dL, the Ht (6 h) was 41.1% and the Lym (6 h) was 70.4%. For the same compound, the MCH (6 h) was 21.7 pg, the MCHC (6 h) was 33.6% and the MCV (6 h) was 64.6 fL. The Mono (6 h) was 6.6%, the Neu (6 h) was 22.4% and the PT (6 h) was 11.8 s. For the same compound, the Plat (6 h) was 114.6 x10_4/uL, the RBC (6 h) was 636.6 x10_4/ul and the Ret (6 h) was 10.1%. For the same compound, the WBC (6 h) was 98 x10_2/uL, the KIDNEY_L (6 h) was 0.9 g and the KIDNEY_R (6 h) was 0.9 g. The KIDNEY_TOTAL (6 h) was 1.8 g, the LIVER (6 h) was 9.6 g and the A/G (6 h) was 2.3. The ALP (6 h) was 802 IU/L, the ALT (6 h) was 29.8 IU/L and the AST (6 h) was 61.8 IU/L. The BUN (6 h) was 11.2 mg/dL, the CRE (6 h) was 0.5 mg/dL and the Ca (6 h) was 10.5 mg/dL. For the same compound, the Cl (6 h) was 105 meq/L, the DBIL (6 h) was 0.068 mg/dL and the GLC (6 h) was 197.2 mg/dL. For the same compound, the IP (6 h) was 9.8 mg/dL, the K (6 h) was 4.7 meq/L and the LDH (6 h) was 90.2 IU/L. It also gave a Na (6 h) of 139.6 meq/L, a PL (6 h) of 135.4 mg/dL and an RALB (6 h) of 3.8 g/dL. It also gave a TBIL (6 h) of 0.4 mg/dL, a TC (6 h) of 75 mg/dL and a TG (6 h) of 53.2 mg/dL. The TP (6 h) was 5.4 g/dL, the gamma-GTP (6 h) was 1.8 IU/L and the TERMINAL_BW (9 h) was 203.1 g. It also gave an APTT (9 h) of 18.5 s, a Bas (9 h) of 0% and an Eos (9 h) of 1.4%. The Fbg (9 h) was 205 mg/dL, the Hb (9 h) was 13.4 g/dL and the Ht (9 h) was 40.1%. The Lym (9 h) was 70.4%, the MCH (9 h) was 21.7 pg and the MCHC (9 h) was 33.5%. For the same compound, the MCV (9 h) was 64.7 fL, the Mono (9 h) was 7.6% and the Neu (9 h) was 20.4%. For the same compound, the PT (9 h) was 12 s, the Plat (9 h) was 110.8 x10_4/uL and the RBC (9 h) was 619 x10_4/ul. It also gave a Ret (9 h) of 10.4%, a WBC (9 h) of 90.1 x10_2/uL and a KIDNEY_L (9 h) of 0.9 g. It also gave a KIDNEY_R (9 h) of 0.9 g, a KIDNEY_TOTAL (9 h) of 1.8 g and an LIVER (9 h) of 8.6 g. For the same compound, the A/G (9 h) was 2.9, the ALP (9 h) was 826.6 IU/L and the ALT (9 h) was 30.2 IU/L. It also gave an AST (9 h) of 63 IU/L, a BUN (9 h) of 12.8 mg/dL and a CRE (9 h) of 0.5 mg/dL. For the same compound, the Ca (9 h) was 10.9 mg/dL, the Cl (9 h) was 105.6 meq/L and the DBIL (9 h) was 0.038 mg/dL. It also gave a GLC (9 h) of 199.4 mg/dL, an IP (9 h) of 9.9 mg/dL and a K (9 h) of 4.5 meq/L. For the same compound, the LDH (9 h) was 106.4 IU/L, the Na (9 h) was 137 meq/L and the PL (9 h) was 137.4 mg/dL. For the same compound, the RALB (9 h) was 4.1 g/dL, the TBIL (9 h) was 0.4 mg/dL and the TC (9 h) was 79.4 mg/dL. It also gave a TG (9 h) of 37.2 mg/dL, a TP (9 h) of 5.5 g/dL and a gamma-GTP (9 h) of 1.8 IU/L. For the same compound, the TERMINAL_BW (24 h) was 214.8 g, the APTT (24 h) was 16.9 s and the Bas (24 h) was 0%. It also gave an Eos (24 h) of 1.6%, a Fbg (24 h) of 196.4 mg/dL and a Hb (24 h) of 13.2 g/dL. For the same compound, the Ht (24 h) was 39.2%, the Lym (24 h) was 75% and the MCH (24 h) was 21.3 pg. The MCHC (24 h) was 33.7%, the MCV (24 h) was 63.3 fL and the Mono (24 h) was 7.2%. It also gave a Neu (24 h) of 17%, a PT (24 h) of 11.5 s and a Plat (24 h) of 122.1 x10_4/uL. It also gave an RBC (24 h) of 619 x10_4/ul, a Ret (24 h) of 10.5% and a WBC (24 h) of 85 x10_2/uL. The KIDNEY_L (24 h) was 1 g, the KIDNEY_R (24 h) was 1 g and the KIDNEY_TOTAL (24 h) was 2 g. The LIVER (24 h) was 9.9 g, the A/G (24 h) was 2.6 and the ALP (24 h) was 906 IU/L. The ALT (24 h) was 41 IU/L, the AST (24 h) was 65.4 IU/L and the BUN (24 h) was 17.8 mg/dL. It also gave a CRE (24 h) of 0.5 mg/dL, a Ca (24 h) of 11 mg/dL and a Cl (24 h) of 104.4 meq/L. The DBIL (24 h) was 0.018 mg/dL, the GLC (24 h) was 201 mg/dL and the IP (24 h) was 8.1 mg/dL. It also gave a K (24 h) of 4.7 meq/L, an LDH (24 h) of 103.6 IU/L and a Na (24 h) of 139 meq/L. For the same compound, the PL (24 h) was 142 mg/dL, the RALB (24 h) was 4 g/dL and the TBIL (24 h) was 0.4 mg/dL. It also gave a TC (24 h) of 79.2 mg/dL, a TG (24 h) of 61.4 mg/dL and a TP (24 h) of 5.6 g/dL. The gamma-GTP (24 h) was 1.6 IU/L.
